{
  "source": "paper PMC9299640",
  "about": "“Incorporation of β‐Alanine in Cu(II) ATCUN Peptide Complexes Increases ROS Levels, DNA Cleavage and Antiproliferative Activity” (Chemistry (Weinheim an Der Bergstrasse, Germany), 2021)",
  "assay": "Detection of hydroxyl radicals (TPA) and hydrogen peroxide (PBSF) by fluorescence spectroscopy",
  "assay_type": "biochemical",
  "conditions": "40 μM complex or CuCl2, ascH− 1 mM, MOPS 50 mM pH 7.4, TPA 0.5 mM or PBSF 25 μM, up to 3.5 h, r.t.",
  "protocol": "To similarly confirm increased DNA cleavage as a result of enhanced ROS formation when introducing β‐Ala2 in the ATCUN motif, the ^•OH and H2O2 production was monitored. To follow the evolution of these species, the oxidation of terephthalate (TPA → HO‐TPA) by ^•OH[40] and the perhydrolysis of pentafluorobenzenesulfonyl fluorescein (PBSF) into fluorescein by H2O2 [40] were analyzed by fluorescence spectroscopy. In Figure 5, the kinetics of ^•OH and H2O2 production by complexes 1 (Gly2), 3 (β‐Ala2), 4 (β‐Ala2; Lys1/4) and CuCl2 are depicted.\nFigure 5 Kinetics of ^•OH (left) and H2O2 (right) production for 1, 3, 4 and CuCl2 (40 μM) in the presence of ascH^− (1 mM) in MOPS buffer (50 mM, pH 7.4) monitored by fluorescence evolution of HO‐TPA (λ ex 320 nm, λ em=428 nm) from TPA (0.5 mM), and fluorescein (λ ex=485 nm, λ em=513 nm) from PBSF (25 μM).\nS-8 Detection of hydroxyl radicals and hydrogen peroxide\nFor the identification of generated ROS by Cu(II) ATCUN complexes during DNA cleavage, gel electrophoresis was used for a ROS quenching experiment (Figure 4). Detection of hydroxyl radicals and hydrogen peroxide generated by metallonucleases was additionally performed by fluorescence spectroscopy.\nThe fluorescent dyes disodium terephthalate (TPA) and pentafluorobenzenesulfonyl fluorescein (PBSF) were used for the detection of hydroxyl radicals and hydrogen peroxide, respectively. […]",
  "data": [
    {"smiles": "[Cl][Cu][Cl]", "note": "[CuCl2, reference compound]", "values": [
      {"measurement": "catalytic ROS generation (•OH and H2O2 production, in words)", "result": "highest ^•OH and H2O2 formation"}
    ]}
  ]
}
